# Test results taken from PMC4019635 (PLoS ONE, 2014).
# Assays:
# RDLbdI/V = RDLbdI/V (Drosophila melanogaster, UniProt P25123, I283V); assay: cell-based; settings: for concentration at which responses failed to saturate: highest concentration usable, TACA, muscimol, β-alanine insoluble at higher concentrations
# RDLbd = molecular target: T1, RDLbd (Drosophila melanogaster, UniProt P25123); assay: cell-based
# T1 sequence (P25123 45-606): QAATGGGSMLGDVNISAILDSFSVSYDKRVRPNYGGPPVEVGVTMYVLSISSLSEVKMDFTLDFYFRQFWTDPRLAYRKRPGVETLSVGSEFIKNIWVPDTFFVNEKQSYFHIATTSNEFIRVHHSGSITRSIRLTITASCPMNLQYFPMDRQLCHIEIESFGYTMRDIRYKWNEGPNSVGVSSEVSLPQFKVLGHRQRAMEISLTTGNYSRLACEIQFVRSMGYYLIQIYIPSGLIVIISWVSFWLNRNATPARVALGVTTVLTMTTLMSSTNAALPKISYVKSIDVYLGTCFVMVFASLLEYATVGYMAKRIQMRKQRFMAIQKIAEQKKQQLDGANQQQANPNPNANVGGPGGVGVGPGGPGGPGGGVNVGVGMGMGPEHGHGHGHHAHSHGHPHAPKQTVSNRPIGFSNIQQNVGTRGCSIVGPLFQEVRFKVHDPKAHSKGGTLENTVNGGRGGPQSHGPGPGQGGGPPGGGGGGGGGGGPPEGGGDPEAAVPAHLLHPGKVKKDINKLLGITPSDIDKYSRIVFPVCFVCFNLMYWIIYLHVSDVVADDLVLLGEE
# RDLbdI/VA^301S = assay: cell-based; set-up: species or system Drosophila melanogaster; settings: compared to wild-type / RDLbdI/V
# [1] = test system: human glycine α1 receptor A288G; set-up: method as in PMID 20308070; settings: A288G mutation; cited from earlier work
# [2] = test system: Drosophila carrying the RDLA^301S mutation; set-up: method as in PMID 11095718; settings: cited from earlier work
# [3] = test system: Drosophila carrying the P299S mutation in GluCl; set-up: method as in PMID 11095718; settings: cited from earlier work
# RDL A^301S mutation = test system: RDL A^301S mutation; set-up: method as in PMID 2124226; settings: cited from earlier work
# RDLbdI/V, sequence (P25123 45-606 I283V): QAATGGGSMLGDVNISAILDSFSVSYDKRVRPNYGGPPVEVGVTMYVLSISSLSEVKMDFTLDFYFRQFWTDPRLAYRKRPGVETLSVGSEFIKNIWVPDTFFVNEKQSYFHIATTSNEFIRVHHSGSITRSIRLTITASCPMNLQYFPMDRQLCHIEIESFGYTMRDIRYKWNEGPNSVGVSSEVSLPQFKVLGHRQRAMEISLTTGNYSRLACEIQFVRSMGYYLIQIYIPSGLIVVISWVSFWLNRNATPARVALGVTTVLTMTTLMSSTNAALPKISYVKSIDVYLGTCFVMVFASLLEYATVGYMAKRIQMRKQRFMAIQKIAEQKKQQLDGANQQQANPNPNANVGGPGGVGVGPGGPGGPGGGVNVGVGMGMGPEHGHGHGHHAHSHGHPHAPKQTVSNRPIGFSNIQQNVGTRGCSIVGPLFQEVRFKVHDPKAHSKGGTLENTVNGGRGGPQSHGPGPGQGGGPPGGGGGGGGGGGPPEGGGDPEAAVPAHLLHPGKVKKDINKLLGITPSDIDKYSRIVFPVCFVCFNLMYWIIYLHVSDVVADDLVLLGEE
Compound,concentration at which responses failed to saturate (RDLbdI/V) [mM],IC50 (RDLbd) [nM],resistance caused by the A^301S mutation (RDLbdI/VA^301S) [fold],also measured
NCCC(=O)O [β-alanine],10,,,
N#Cc1nn(-c2c(Cl)cc(C(F)(F)F)cc2Cl)c(N)c1[S+]([O-])C(F)(F)F (stereo not drawn) [fipronil],,331,3,"current induced when applied alone (RDLbdI/V; 1 nM−100 µM, no GABA, receptor variant not stated, data not shown): no discernible current"
"N#Cc1nn(-c2c(Cl)cc(C(F)(F)F)cc2Cl)c(NCc2cnccn2)c1SCF [Pyrafluprole, pyrafluprole]",,631,2,
NCc1cc(=O)[nH]o1 [muscimol],3,,,
"NC/C=C/C(=O)O [TACA, trans-4-aminocrotonic acid]",6,,,
"CC[C@H](C)[C@H]1O[C@]2(CC[C@@H]1C)C[C@@H]1C[C@@H](C/C=C(\C)[C@@H](O[C@H]3C[C@H](OC)[C@@H](O[C@H]4C[C@H](OC)[C@@H](O)[C@H](C)O4)[C@H](C)O3)[C@@H](C)/C=C/C=C3\CO[C@@H]4[C@H](O)C(C)=C[C@@H](C(=O)O1)[C@]34O)O2 [IVM, ivermectin]",,525,2,increase in sensitivity [1]: ~100 fold; resistance compared to the wild-type [2]: 3.3 fold; sensitivity change [3]: ten-fold less sensitive
O=C(O)C1=CCNCC1 [isoguvacine],3,,,
ClC1=C(Cl)[C@]2(Cl)[C@@H]3[C@@H]4C[C@@H]([C@H]5O[C@@H]45)[C@@H]3[C@@]1(Cl)C2(Cl)Cl [dieldrin],,,,resistance (RDL A^301S mutation): > 4000 fold
